This passage reports relative viability results from the supplement of paper PMC10307832.

Test in all cases: relative viability (nuclei count vs DMSO), 5 days (fraction); higher = more cells survive
Compound in the assay “Nelarabine + Navitoclax”: COc1nc(N)nc2c1ncn2[C@@H]1O[C@H](CO)[C@@H](O)[C@@H]1O [Nelarabine] + CC1(C)CCC(c2ccc(Cl)cc2)=C(CN2CCN(c3ccc(C(=O)NS(=O)(=O)c4ccc(N[C@H](CCN5CCOCC5)CSc5ccccc5)c(S(=O)(=O)C(F)(F)F)c4)cc3)CC2)C1 [Navitoclax] (partner 0.5 µM)
Put shortly:
(§1)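 Lung cancer cell lines in 1536-well plates got either a single drug or a fixed anchor-drug dose together with five library-drug doses (not always all listed) in √10 steps, by pin tool, on the day after seeding. Nuclei were counted after 5 days, and relative viability is the treated-to-vehicle ratio of nuclei counts. Values are medians of duplicate plates.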

Compound in the assay “Adavosertib + Dasatinib”: C=CCn1c(=O)c2cnc(Nc3ccc(N4CCN(C)CC4)cc3)nc2n1-c1cccc(C(C)(C)O)n1 [Adavosertib] + Cc1nc(Nc2ncc(C(=O)Nc3c(C)cccc3Cl)s2)cc(N2CCN(CCO)CC2)n1 [Dasatinib] (partner 0.075 µM)
Put shortly:
as §1

Compound in the assay “Nelarabine + Lapatinib”: COc1nc(N)nc2c1ncn2[C@@H]1O[C@H](CO)[C@@H](O)[C@@H]1O [Nelarabine] + CS(=O)(=O)CCNCc1ccc(-c2ccc3ncnc(Nc4ccc(OCc5cccc(F)c5)c(Cl)c4)c3c2)o1 [Lapatinib] (partner 2 µM)
In short, it runs like this:
as §1

Compound in the assay “Adavosertib + AZD7762”: C=CCn1c(=O)c2cnc(Nc3ccc(N4CCN(C)CC4)cc3)nc2n1-c1cccc(C(C)(C)O)n1 [Adavosertib] + NC(=O)Nc1cc(-c2cccc(F)c2)sc1C(=O)N[C@H]1CCCNC1 [AZD7762] (partner 0.2 µM)
In short, it runs like this: as §1

Take EMC-BAC-2: the relative viability with Nelarabine + Navitoclax (first compound 0.01 µM) amounted to 1.45; with Nelarabine + Navitoclax (first compound 0.03162 µM) it was 1.11; with Nelarabine + Navitoclax (first compound 0.1 µM), 1.25; with Nelarabine + Navitoclax (first compound 0.3162 µM) it was 1.38; in the assay with Nelarabine + Navitoclax (first compound 1 µM), 1.16; in the assay with Adavosertib + Dasatinib (first compound 0.01 µM), 0.333. Moreover, the relative viability with Adavosertib + Dasatinib (first compound 0.03162 µM) amounted to 0.339; with Adavosertib + Dasatinib (first compound 0.1 µM), 0.324; with Adavosertib + Dasatinib (first compound 0.3162 µM) it was 0.261; with Nelarabine + Lapatinib (first compound 0.01 µM), 1.05; with Nelarabine + Lapatinib (first compound 0.03162 µM), 0.909; in the assay with Nelarabine + Lapatinib (first compound 0.1 µM) it was 0.883. Besides, the relative viability in the assay with Nelarabine + Lapatinib (first compound 0.3162 µM) stood at 0.962; with Nelarabine + Lapatinib (first compound 1 µM), 0.885; with Adavosertib + AZD7762 (first compound 0.03162 µM) it was 1.15; in the assay with Adavosertib + AZD7762 (first compound 0.1 µM) it was 0.887; with Adavosertib + AZD7762 (first compound 0.3162 µM), 1.06.
